Experimental data published in ChEMBL document CHEMBL3745709, “Synthesis of novel ethyl 1-ethyl-6-fluoro-7-(fatty amido)-1,4-dihydro-4-oxoquinoline-3-carboxylate derivatives and their biological evaluation” (Bioorg Med Chem Lett, 2016).
In brackets after ≈: the same amount, converted by molar mass. One block for each compound: values may come before it.

How the values were obtained:
Pichia sporocuriosa [1] = assay: Fungicidal activity against Issatchenkia hanoiensis MTCC 4755 assessed as microbial killing after 24 hrs; assay type: functional; conditions: MTCC 4755, 24 h
Candida albicans [2] = assay: Antifungal activity against Candida albicans MTCC 3017 […] after 24 hrs at 30 degC by well diffusion method; assay type: functional; conditions: MTCC 3017, 24 h
Candida albicans [3] = assay: Antifungal activity against Candida albicans MTCC 183 assessed as inhibition zone after 24 hrs at 30 degC by well diffusion method; assay type: functional; conditions: MTCC 183, 24 h
Candida albicans [4] = assay: Antifungal activity against Candida albicans MTCC 227 assessed as inhibition zone after 24 hrs at 30 degC by well diffusion method; assay type: functional; conditions: MTCC 227, 24 h
Candida albicans [5] = assay: Antifungal activity against Candida albicans MTCC 854 assessed as inhibition zone after 24 hrs at 30 degC by well diffusion method; assay type: functional; conditions: MTCC 854, 24 h
Candida albicans [6] = assay: Antifungal activity against Candida albicans MTCC 1637 assessed as inhibition zone after 24 hrs at 30 degC by well diffusion method; assay type: functional; conditions: MTCC 1637, 24 h
Candida albicans [7] = assay: Antifungal activity against Candida albicans MTCC 3018 assessed as inhibition zone after 24 hrs at 30 degC by well diffusion method; assay type: functional; conditions: MTCC 3018, 24 h
Candida albicans [8] = assay: Antifungal activity against Candida albicans MTCC 3958 assessed as inhibition zone after 24 hrs at 30 degC by well diffusion method; assay type: functional; conditions: MTCC 3958, 24 h
Candida albicans [9] = assay: Antifungal activity against Candida albicans MTCC 4748 assessed as inhibition zone after 24 hrs at 30 degC by well diffusion method; assay type: functional; conditions: MTCC 4748, 24 h
Candida albicans [10] = assay: Antifungal activity against Candida albicans MTCC 7315 assessed as inhibition zone after 24 hrs at 30 degC by well diffusion method; assay type: functional; conditions: MTCC 7315, 24 h
Candida parapsilosis [11] = assay: Antifungal activity against Candida parapsilosis MTCC 1744 assessed as inhibition zone after 24 hrs at 30 degC by well diffusion method; assay type: functional; conditions: Lodderomyces parapsilosis, MTCC 1744, 24 h
[Candida] aaseri [12] = Antifungal activity against Candida aaseri MTCC 1962 assessed as inhibition zone after 24 hrs at 30 degC by well diffusion method; assay type: functional; conditions: Yamadazyma aaseri, MTCC 1962, 24 h
Nakaseomyces glabratus [13] = assay: Antifungal activity against Candida glabrata MTCC 3019 assessed as inhibition zone after 24 hrs at 30 degC by well diffusion method; assay type: functional; conditions: MTCC 3019, 24 h
Pichia kudriavzevii [14] = assay: Antifungal activity against Candida krusei MTCC 3020 assessed as inhibition zone after 24 hrs at 30 degC by well diffusion method; assay type: functional; conditions: MTCC 3020, 24 h
Pichia sporocuriosa [15] = assay: Antifungal activity against Issatchenkia hanoiensis MTCC 4755 assessed as inhibition zone after 24 hrs at 30 degC by well diffusion method; assay type: functional; conditions: MTCC 4755, 24 h
Candida albicans [16] = assay: Fungicidal activity against Candida albicans MTCC 183 assessed as microbial killing after 24 hrs; assay type: functional; conditions: MTCC 183, 24 h
Candida albicans [17] = assay: Fungicidal activity against Candida albicans MTCC 227 assessed as microbial killing after 24 hrs; assay type: functional; conditions: MTCC 227, 24 h
Candida albicans [18] = assay: Fungicidal activity against Candida albicans MTCC 854 assessed as microbial killing after 24 hrs; assay type: functional; conditions: MTCC 854, 24 h
Candida albicans [19] = assay: Fungicidal activity against Candida albicans MTCC 1637 assessed as microbial killing after 24 hrs; assay type: functional; conditions: MTCC 1637, 24 h
Candida albicans [20] = assay: Fungicidal activity against Candida albicans MTCC 3017 assessed as microbial killing after 24 hrs; assay type: functional; conditions: MTCC 3017, 24 h
Candida albicans [21] = assay: Fungicidal activity against Candida albicans MTCC 3018 assessed as microbial killing after 24 hrs; assay type: functional; conditions: MTCC 3018, 24 h
Candida albicans [22] = assay: Fungicidal activity against Candida albicans MTCC 3958 assessed as microbial killing after 24 hrs; assay type: functional; conditions: MTCC 3958, 24 h
Candida albicans [23] = assay: Fungicidal activity against Candida albicans MTCC 4748 assessed as microbial killing after 24 hrs; assay type: functional; conditions: MTCC 4748, 24 h
Candida albicans [24] = assay: Fungicidal activity against Candida albicans MTCC 7315 assessed as microbial killing after 24 hrs; assay type: functional; conditions: MTCC 7315, 24 h
Candida parapsilosis [25] = assay: Fungicidal activity against Candida parapsilosis MTCC 1744 assessed as microbial killing after 24 hrs; assay type: functional; conditions: Lodderomyces parapsilosis, MTCC 1744, 24 h
[Candida] aaseri [26] = Fungicidal activity against Candida aaseri MTCC 1962 assessed as microbial killing after 24 hrs; assay type: functional; conditions: Yamadazyma aaseri, MTCC 1962, 24 h
Nakaseomyces glabratus [27] = assay: Fungicidal activity against Candida glabrata MTCC 3019 assessed as microbial killing after 24 hrs; assay type: functional; conditions: MTCC 3019, 24 h
Pichia kudriavzevii [28] = assay: Fungicidal activity against Candida krusei MTCC 3020 assessed as microbial killing after 24 hrs; assay type: functional; conditions: MTCC 3020, 24 h
[29] = Antioxidant activity assessed as DPPH free radical scavenging activity; assay type: physicochemical
Micrococcus luteus = assay: Antibacterial activity against Micrococcus luteus MTCC 2470 assessed as inhibition zone after 24 hrs at 30 degC by well diffusion method; assay type: functional; conditions: MTCC 2470, 24 h
Staphylococcus aureus [30] = assay: Antibacterial activity against Staphylococcus aureus MTCC 96 […] after 24 hrs at 30 degC by well diffusion method; assay type: functional; conditions: MTCC 96, 24 h
Staphylococcus aureus [31] = assay: Antibacterial activity against Staphylococcus aureus MLS-16 MTCC 2940 assessed as inhibition zone after 24 hrs at 30 degC by well diffusion method; assay type: functional; conditions: MLS-16 MTCC 2940, 24 h
Bacillus subtilis = assay: Antibacterial activity against Bacillus subtilis MTCC 121 assessed as inhibition zone after 24 hrs at 30 degC by well diffusion method; assay type: functional; conditions: MTCC 121, 24 h
Escherichia coli = assay: Antibacterial activity against Escherichia coli MTCC 739 assessed as inhibition zone after 24 hrs at 30 degC by well diffusion method; assay type: functional; conditions: MTCC 739, 24 h
Pseudomonas aeruginosa = assay: Antibacterial activity against Pseudomonas aeruginosa MTCC 2453 assessed as inhibition zone after 24 hrs at 30 degC by well diffusion method; assay type: functional; conditions: MTCC 2453, 24 h
Raoultella planticola = assay: Antibacterial activity against Klebsiella planticola MTCC 530 assessed as inhibition zone after 24 hrs at 30 degC by well diffusion method; assay type: functional; conditions: MTCC 530, 24 h
[32] = Cytotoxicity against human DU145 cells assessed as reduction in cell viability by MTT assay; assay type: functional, cell-based; conditions: DU-145
A549 = assay: Cytotoxicity against human A549 cells assessed as reduction in cell viability by MTT assay; assay type: functional, cell-based
[33] = Cytotoxicity against human SKOV3 cells assessed as reduction in cell viability by MTT assay; assay type: functional, cell-based; conditions: SK-OV-3
MCF7 = assay: Cytotoxicity against human MCF7 cells assessed as reduction in cell viability by MTT assay; assay type: functional, cell-based

MIC (Candida albicans [2]): 7.8 µg/mL (≈ 18.7 µM)
MIC (Candida albicans [3]): 7.8 µg/mL (≈ 18.7 µM)
MIC (Candida albicans [4]): 7.8 µg/mL (≈ 18.7 µM)
MIC (Candida albicans [5]): 7.8 µg/mL (≈ 18.7 µM)
MIC (Candida albicans [6]): 7.8 µg/mL (≈ 18.7 µM)
MIC (Candida albicans [7]): 7.8 µg/mL (≈ 18.7 µM)
MIC (Candida albicans [8]): 7.8 µg/mL (≈ 18.7 µM)
MIC (Candida albicans [9]): 7.8 µg/mL (≈ 18.7 µM)
MIC (Candida albicans [10]): 7.8 µg/mL (≈ 18.7 µM)
MIC (Candida parapsilosis [11]): 7.8 µg/mL (≈ 18.7 µM)
MIC ([Candida] aaseri [12]): 7.8 µg/mL (≈ 18.7 µM)
MIC (Nakaseomyces glabratus [13]): 7.8 µg/mL (≈ 18.7 µM)
MIC (Pichia kudriavzevii [14]): 7.8 µg/mL (≈ 18.7 µM)
MIC (Pichia sporocuriosa [15]): 7.8 µg/mL (≈ 18.7 µM)
Structure (SMILES): Clc1ccc(COC(Cn2ccnc2)c2ccc(Cl)cc2Cl)c(Cl)c1 (stereo not given) [MICONAZOLE]
MFC (Pichia sporocuriosa [1]): 7.8 µg/mL (≈ 18.7 µM)
MFC (Candida albicans [16]): 7.8 µg/mL (≈ 18.7 µM)
MFC (Candida albicans [17]): 15.6 µg/mL (≈ 37.5 µM)
MFC (Candida albicans [18]): 15.6 µg/mL (≈ 37.5 µM)
MFC (Candida albicans [19]): 15.6 µg/mL (≈ 37.5 µM)
MFC (Candida albicans [20]): 7.8 µg/mL (≈ 18.7 µM)
MFC (Candida albicans [21]): 7.8 µg/mL (≈ 18.7 µM)
MFC (Candida albicans [22]): 15.6 µg/mL (≈ 37.5 µM)
MFC (Candida albicans [23]): 7.8 µg/mL (≈ 18.7 µM)
MFC (Candida albicans [24]): 7.8 µg/mL (≈ 18.7 µM)
MFC (Candida parapsilosis [25]): 7.8 µg/mL (≈ 18.7 µM)
MFC ([Candida] aaseri [26]): 7.8 µg/mL (≈ 18.7 µM)
MFC (Nakaseomyces glabratus [27]): 15.6 µg/mL (≈ 37.5 µM)
MFC (Pichia kudriavzevii [28]): 7.8 µg/mL (≈ 18.7 µM)

EC50 [29]: 750.7 µg/mL (≈ 1380 µM)
MIC (Micrococcus luteus): > 125 µg/mL
MIC (Staphylococcus aureus [30]): > 125 µg/mL
MIC (Staphylococcus aureus [31]): > 125 µg/mL
MIC (Bacillus subtilis): > 125 µg/mL
MIC (Escherichia coli): > 125 µg/mL
MIC (Pseudomonas aeruginosa): > 125 µg/mL
MIC (Candida albicans [2]): > 125 µg/mL
Structure (SMILES): CCCCCCCC/C=C/CCCCCCCC(=O)Nc1cc2c(cc1F)c(=O)c(C(=O)OCC)cn2CC
MIC (Raoultella planticola): > 125 µg/mL

EC50 [29]: 147.5 µg/mL (≈ 332 µM)
MIC (Micrococcus luteus): > 125 µg/mL
MIC (Staphylococcus aureus [30]): > 125 µg/mL
MIC (Staphylococcus aureus [31]): > 125 µg/mL
MIC (Bacillus subtilis): > 125 µg/mL
MIC (Escherichia coli): > 125 µg/mL
MIC (Pseudomonas aeruginosa): > 125 µg/mL
MIC (Candida albicans [2]): > 125 µg/mL
Structure (SMILES): C=CCCCCCCCCC(=O)Nc1cc2c(cc1F)c(=O)c(C(=O)OCC)cn2CC
IC50 [32]: 87.3 µM
IC50 (A549): 66.5 µM
IC50 [33]: 91.2 µM
IC50 (MCF7): 64.6 µM
MIC (Raoultella planticola): > 125 µg/mL
